Laboratory results as given in patent US20230301973A1, “TREATMENT OF DIFFUSE INTRINSIC PONTINE GLIOMA” (priority 2016, published 2023).
Read-outs that look alike come from different tables or passages of the source.

What was measured:
[1] = Transport over the blood-brain barrier, brain-to-plasma ratio; assay type: in vivo, mouse
primary DIPG cell lines = assay: Effect on primary DIPG cell lines / primary tumor astrocytes; assay type: cell-based
From the text: Maternal embryonic leucine zipper kinase (MELK) is a serine/threonine kinase implicated in many cellular processes involved in embryogenesis and oncogenesis. Overexpression of MELK is a common feature of diffuse intrinsic pontine glioma (DIPG) and related to tumor grade.

normal astrocytes = assay: Effect on normal astrocytes; assay type: cell-based; conditions: 10 nanomolar
[2] = cited from earlier work; for MTD: clinical

Compound: CC(=O)c1cnc2ccc(-c3cc(Cl)c(O)c(Cl)c3)nc2c1NC1CCC(CN(C)C)CC1 (stereo not shown) [OTS167, 1-[6-(3,5-Dichloro-4-hydroxyphenyl)-4-({4-[(dimethylamino)methyl]cyclohexyl}amino)-1,5-naphthyridin-3-yl]ethanone]
- Factor of increase of concentration in brain tissue ([1]; co-administering a P-glycoprotein1 / Abcb1a inhibitor): ≥ 4
- Kp ([1]; mouse, brain and plasma, mouse models (wild type), passive transport, read-out: Brain-to-plasma (B/P) ratio): 0.02
- Absolute concentration reached in the brain ([1]; with pharmaceutically acceptable toxic adverse effects): about 10 nanomolar
- Toxicity / apoptosis on primary tumor astrocytes (primary DIPG cell lines; 10 nM, most DIPG tumor cell lines): toxic and induces apoptosis
- Cell death in primary DIPG cell lines (primary DIPG cell lines; low nanomolar concentrations): induces cell death
- Migration of primary DIPG cell lines (primary DIPG cell lines; low nanomolar concentrations): effectively inhibits migration
- Proliferation of primary DIPG cell lines (primary DIPG cell lines; low nanomolar concentrations): reduces proliferation
- Apoptosis in non-somatic (normal) cells (normal astrocytes): no apoptosis occurs
- Growth of normal astrocytes (normal astrocytes): only slightly slows down the growth

Compound: C[C@@H](Oc1cc(-c2cnn(C3CCNCC3)c2)cnc1N)c1c(Cl)ccc(F)c1Cl [Crizotinib]
- MTD [2]: 250 mg twice a day

Compound: Pembrolizumab
- MTD [2]: Not reached up to 10 mg/kg q2w

Compound: CC[C@H](Nc1ncnc2[nH]cnc12)c1nc2cccc(F)c2c(=O)n1-c1ccccc1 [Idelalisib]
- MTD [2]: Not reached up to 350 mg twice a day

Compound: CS(=O)(=O)c1ccc(C(=O)Nc2ccc(Cl)c(-c3ccccn3)c2)c(Cl)c1 [Vismodegib]
- MTD [2]: Not reached up to 540 mg/d

Compound: CCN(CCCOc1ccc2c(Nc3cc(CC(=O)Nc4cccc(F)c4)n[nH]3)ncnc2c1)CCOP(=O)(O)O [AZD1152]
- MTB ([2]; clinical evaluation, dependent on the dosing schedule): 200 to 450 mg

Compound: Cc1cccc(-c2nn3c(c2-c2ccnc4ccc(C(N)=O)cc24)CCC3)n1 [Galunisertib]
- MTD ([2]; result in words): Not able to determine MTD due to potential cardiovascular DLT

Compound: Nc1ncn([C@H]2C[C@H](O)[C@@H](CO)O2)c(=O)n1 [Decitabine]
- MTD ([2]; over 1-3 days): 1,500-2,000/mg/m^2 over 1-3 days
